Activity and cell count data for eight compounds are collected here from ChEMBL document CHEMBL3632553, “New fluorinated agonists for targeting the sphingosin-1-phosphate receptor 1 (S1P(1))” (2015).

Active and inactive are the calls of the source. No cut-off for these calls is given here.

In assay [1] the target is Sphingosine 1-phosphate receptor 1 (Homo sapiens) (UniProt P21453). In words: Agonist activity at human sphingosin-1-phosphate receptor 1 expressed in CHO cells assessed as phosphorylation status of p44/42 MAPK after 10 mins by Western blotting. It counts as cell-based. A general note: In western blotting, separated proteins are transferred to a membrane and probed.
Chain of Sphingosine 1-phosphate receptor 1 (Homo sapiens) (P21453 whole entry): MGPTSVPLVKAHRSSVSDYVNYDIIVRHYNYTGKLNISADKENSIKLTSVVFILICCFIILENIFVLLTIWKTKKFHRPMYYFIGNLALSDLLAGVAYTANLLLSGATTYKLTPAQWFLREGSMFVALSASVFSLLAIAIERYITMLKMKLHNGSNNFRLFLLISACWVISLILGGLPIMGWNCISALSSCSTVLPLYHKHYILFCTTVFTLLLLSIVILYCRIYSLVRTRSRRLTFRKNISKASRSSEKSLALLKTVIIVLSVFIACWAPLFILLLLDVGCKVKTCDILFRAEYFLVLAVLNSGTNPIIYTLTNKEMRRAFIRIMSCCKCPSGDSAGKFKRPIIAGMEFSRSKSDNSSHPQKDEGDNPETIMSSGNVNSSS
The target is the same in assay [2]. In words: Agonist activity at human sphingosin-1-phosphate receptor 1 expressed in CHO cells assessed as phosphorylation status of p44/42 MAPK after 2.5 mins by Western blotting. It counts as cell-based.
Assay [3] has the same target. Nature of the assay: Agonist activity at human sphingosin-1-phosphate receptor 1 expressed in CHO cells assessed as phosphorylation status of p44/42 MAPK after 5 mins by Western blotting. In kind it is cell-based.
In assay [4] the test system is Mus musculus. In words: Immunosuppressive activity in mouse assessed as reduction of CD4+ level in peripheral blood assessed per 10^6 cells at 1.25 mg/kg, ip after 24 hrs by flow cytometry (reference value: 0.73 +/- 0.07 ml). It counts as functional. In general terms: A flow cytometer gives signals particle by particle.
Assay [5] relates to Mus musculus. In words: Immunosuppressive activity in mouse assessed as reduction of CD8+ level in peripheral blood assessed per 10^6 cells at 1.25 mg/kg, ip after 24 hrs by flow cytometry (reference value: 0.48 +/- 0.05 ml). In kind it is functional.
Assay [6] deals with Mus musculus. Nature of the assay: Immunosuppressive activity in mouse assessed as reduction of B-cells level in peripheral blood assessed per 10^6 cells at 1.25 mg/kg, ip after 24 hrs by flow cytometry (reference value: 4.72 +/- 0.53 ml). It counts as functional.
The subject of assay [7] is Mus musculus. Nature of the assay: Immunosuppressive activity in mouse assessed as induction of lymphopenia at 1.25 mg/kg, ip after 24 hrs by flow cytometry. In kind it is functional.
Assay [8] deals with Mus musculus. In words: Immunosuppressive activity in mouse assessed as reduction of WBC level in peripheral blood assessed per 10^6 cells at 1.25 mg/kg, ip after 24 hrs by flow cytometry (reference value: 8.94 +/- 0.59 ml). It counts as functional.

`NC(CO)(CO)CCCCCCCCCCc1ccc(C(F)(F)F)cc1`: the result in assay [1], in assay [2] and in assay [3] was Active.

Turning to `NC(CO)(CO)CCCCCCCCCCc1c(F)c(F)c(F)c(F)c1F`, the outcome in assay [1], in assay [2] and in assay [3] was Active.

For the compound `NC(CO)(CO)CCCCCCCCCCc1ccc(F)cc1`, the result in assay [1], in assay [2] and in assay [3] was Active.

`NC(CO)(CO)CCCCCCCCCCc1cccc(S(F)(F)(F)(F)F)c1`: the outcome in assay [1], in assay [2] and in assay [3] was Active.

For `CCCCCCCCc1ccc(CCC(N)(CO)CO)cc1` [FINGOLIMOD], the cell count is 0.02 10^6 cells/mL in the assay with Mus musculus [4], 0.04 10^6 cells/mL in the assay on Mus musculus [5], 0.61 10^6 cells/mL in the assay on Mus musculus [6] and 3.69 10^6 cells/mL in the assay on Mus musculus [8]. Moreover, the Activity in the assay on Mus musculus [7] is reported as 97%.

`NC(CO)(CO)CCCCCCCCCCc1ccccc1`: the result in assay [1], in assay [2] and in assay [3] was Active.

Regarding `NC(CO)(CO)CCCCCCCCCCCCCCC(F)F`, the cell count in the assay with Mus musculus [4] is 0.03 10^6 cells/mL; in the assay on Mus musculus [5] it was 0.04 10^6 cells/mL; in the assay with Mus musculus [6], 0.29 10^6 cells/mL; with Mus musculus [8], 1.67 10^6 cells/mL. Further, the result in assay [1], in assay [2] and in assay [3] was Active. Moreover, the Activity with Mus musculus [7] is given as 95%.

For `NC(CO)(CO)CCCCCCCCCCc1ccc(S(F)(F)(F)(F)F)cc1`, the outcome in assay [1], in assay [2] and in assay [3] was Active.
